{
  "source": "paper doi:10.1101/2025.08.06.668955",
  "about": "“High-Affinity, Structure-Validated and Selective Macrocyclic Peptide Tools for Chemical Biology Studies of Huntingtin” (bioRxiv, 2025)",
  "key": {"HTT": {"test_system": "HTT", "assay": "HL2 macrocycle pulldown from isogenic neuronal progenitor cells (NPCs), LC-MS/MS", "type": "binding, human", "conditions": "isogenic NPC lines Q30/Q19, Q45/Q19 and Q81/Q27", "description": "We extended our analysis to isogenic neuronal progenitor cells (NPCs), which more closely resemble the neuronal populations affected in HD, both functionally and in terms of gene expression profiles ([Ooi et al., 2019]). […] Thus, we compared HL2 protein enrichment profiles across isogenic NPC lines harboring non-expanded (Q30/Q19) and expanded CAG repeats (Q45/Q19 and Q81/Q27).\nSuccessful macrocycle-mediated pulldown was first confirmed by western blot in all NPC lines (Supplementary Figure 14a). […] HTT and HAP40 were the only proteins consistently overlapping across all three NPC lines (Supplementary Figure 14b). […]\nCells were harvested by centrifugation at 1,500 rpm for 5 minutes, washed twice with PBS, and snap-frozen. […] Protein concentration was determined by BCA assay (Thermo Fisher Scientific, 23225), yielding approximately 4 mg of protein on average. […]\nAll sample preparation, LC MS/MS data collection, and MS data searches were carried out at the SPARC BioCentre at The Hospital for Sick Children (Toronto, ON, Canada). […] Samples were analyzed by liquid chromatography tandem mass spectrometry (LC-MS/MS) using an EASY-nanoLC 1200 system with a 1 h analysis and an Orbitrap Fusion™ Lumos™ Tribrid™ Mass Spectrometer (Thermo Fisher Scientific). […]"}, "HTTQ23-HAP40": {"target": "T1, HTTQ23-HAP40 (Homo sapiens, UniProt P23610+P42858, INS38QQ)", "T1 construct": "Full-length wildtype HTT with a polyQ tract of 23 glutamines; FLAG; made in house; host or cells: Sf9 insect cells (baculovirus)", "T1 sequence (P42858 with tags, fused parts or gaps INS38QQ)": "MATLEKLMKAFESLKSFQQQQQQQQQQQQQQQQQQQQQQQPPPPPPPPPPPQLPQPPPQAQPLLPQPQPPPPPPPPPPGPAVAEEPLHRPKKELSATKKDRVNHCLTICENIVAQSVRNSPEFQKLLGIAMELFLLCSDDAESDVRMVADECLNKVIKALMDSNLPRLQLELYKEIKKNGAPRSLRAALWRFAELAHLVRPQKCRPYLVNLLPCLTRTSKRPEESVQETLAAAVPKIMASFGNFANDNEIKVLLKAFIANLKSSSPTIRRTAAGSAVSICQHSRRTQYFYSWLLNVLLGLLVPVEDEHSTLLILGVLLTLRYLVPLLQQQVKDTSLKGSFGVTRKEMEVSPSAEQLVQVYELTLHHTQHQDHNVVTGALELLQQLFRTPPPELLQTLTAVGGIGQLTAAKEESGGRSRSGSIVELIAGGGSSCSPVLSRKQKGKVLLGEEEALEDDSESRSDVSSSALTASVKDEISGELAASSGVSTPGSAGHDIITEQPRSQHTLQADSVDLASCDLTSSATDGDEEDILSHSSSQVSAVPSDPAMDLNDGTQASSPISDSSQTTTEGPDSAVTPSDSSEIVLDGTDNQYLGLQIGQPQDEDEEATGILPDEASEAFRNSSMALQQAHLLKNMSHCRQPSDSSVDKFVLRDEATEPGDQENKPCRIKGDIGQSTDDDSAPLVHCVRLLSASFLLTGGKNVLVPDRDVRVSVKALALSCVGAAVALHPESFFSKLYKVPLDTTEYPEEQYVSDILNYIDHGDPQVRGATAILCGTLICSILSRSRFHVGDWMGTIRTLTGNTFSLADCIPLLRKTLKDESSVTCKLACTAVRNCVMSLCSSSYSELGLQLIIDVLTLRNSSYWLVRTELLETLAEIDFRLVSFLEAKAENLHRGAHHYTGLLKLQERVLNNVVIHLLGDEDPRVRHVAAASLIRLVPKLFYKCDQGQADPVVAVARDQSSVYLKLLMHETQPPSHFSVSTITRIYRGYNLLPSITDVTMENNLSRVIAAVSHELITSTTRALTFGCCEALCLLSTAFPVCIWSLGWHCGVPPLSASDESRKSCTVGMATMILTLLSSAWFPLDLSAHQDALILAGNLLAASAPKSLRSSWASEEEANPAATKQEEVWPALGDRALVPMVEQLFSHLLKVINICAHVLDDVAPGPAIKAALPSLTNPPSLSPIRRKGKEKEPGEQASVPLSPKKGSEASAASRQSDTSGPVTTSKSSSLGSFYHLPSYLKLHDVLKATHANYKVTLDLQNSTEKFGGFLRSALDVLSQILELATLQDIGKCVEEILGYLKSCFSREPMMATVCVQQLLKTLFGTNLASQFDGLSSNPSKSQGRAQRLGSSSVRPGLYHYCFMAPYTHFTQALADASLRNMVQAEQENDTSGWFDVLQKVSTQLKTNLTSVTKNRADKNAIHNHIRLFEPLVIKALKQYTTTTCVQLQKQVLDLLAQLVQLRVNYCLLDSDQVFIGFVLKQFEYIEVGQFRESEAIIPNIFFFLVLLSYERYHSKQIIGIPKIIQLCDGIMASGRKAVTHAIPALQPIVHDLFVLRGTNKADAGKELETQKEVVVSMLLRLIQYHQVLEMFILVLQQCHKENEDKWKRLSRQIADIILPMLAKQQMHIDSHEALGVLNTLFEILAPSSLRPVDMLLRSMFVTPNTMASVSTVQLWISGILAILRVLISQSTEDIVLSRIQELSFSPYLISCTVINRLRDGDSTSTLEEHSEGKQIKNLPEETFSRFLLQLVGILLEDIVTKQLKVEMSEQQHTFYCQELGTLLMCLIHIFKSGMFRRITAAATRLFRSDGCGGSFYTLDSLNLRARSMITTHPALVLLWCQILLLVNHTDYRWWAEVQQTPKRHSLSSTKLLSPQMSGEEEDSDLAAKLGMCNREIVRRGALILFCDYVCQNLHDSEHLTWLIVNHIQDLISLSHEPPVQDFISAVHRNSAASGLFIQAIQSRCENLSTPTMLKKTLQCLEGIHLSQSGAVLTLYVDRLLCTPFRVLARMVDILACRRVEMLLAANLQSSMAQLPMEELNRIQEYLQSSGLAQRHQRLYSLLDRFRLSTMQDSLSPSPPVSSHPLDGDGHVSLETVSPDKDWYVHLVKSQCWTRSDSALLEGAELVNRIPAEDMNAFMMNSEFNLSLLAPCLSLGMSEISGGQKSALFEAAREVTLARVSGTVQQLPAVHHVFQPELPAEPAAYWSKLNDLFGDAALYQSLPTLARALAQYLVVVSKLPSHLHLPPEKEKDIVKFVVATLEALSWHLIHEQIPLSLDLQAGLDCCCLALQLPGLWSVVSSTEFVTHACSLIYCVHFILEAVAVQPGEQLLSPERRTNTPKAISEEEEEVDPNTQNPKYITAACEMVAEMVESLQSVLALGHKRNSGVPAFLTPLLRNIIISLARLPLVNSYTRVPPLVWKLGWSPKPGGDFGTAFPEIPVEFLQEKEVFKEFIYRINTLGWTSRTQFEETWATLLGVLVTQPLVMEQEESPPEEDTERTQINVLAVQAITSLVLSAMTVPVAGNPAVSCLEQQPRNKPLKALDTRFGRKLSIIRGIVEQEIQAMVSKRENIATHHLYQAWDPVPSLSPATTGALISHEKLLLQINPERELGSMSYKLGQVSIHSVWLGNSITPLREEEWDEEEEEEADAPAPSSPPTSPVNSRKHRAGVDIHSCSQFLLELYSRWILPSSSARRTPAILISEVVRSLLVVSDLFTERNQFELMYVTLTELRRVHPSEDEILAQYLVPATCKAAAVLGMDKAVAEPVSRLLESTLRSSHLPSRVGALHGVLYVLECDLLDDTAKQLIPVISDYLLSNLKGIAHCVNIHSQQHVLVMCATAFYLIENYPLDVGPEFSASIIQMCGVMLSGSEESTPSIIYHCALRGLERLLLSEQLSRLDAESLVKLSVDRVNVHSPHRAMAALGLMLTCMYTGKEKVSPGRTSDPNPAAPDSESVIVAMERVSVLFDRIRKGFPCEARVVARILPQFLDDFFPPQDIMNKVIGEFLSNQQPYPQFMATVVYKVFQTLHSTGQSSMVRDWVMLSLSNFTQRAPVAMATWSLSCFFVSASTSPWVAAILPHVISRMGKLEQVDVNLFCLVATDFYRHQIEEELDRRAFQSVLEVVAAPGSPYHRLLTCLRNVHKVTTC", "T1 sequence (P23610 whole entry, stated change not applied)": "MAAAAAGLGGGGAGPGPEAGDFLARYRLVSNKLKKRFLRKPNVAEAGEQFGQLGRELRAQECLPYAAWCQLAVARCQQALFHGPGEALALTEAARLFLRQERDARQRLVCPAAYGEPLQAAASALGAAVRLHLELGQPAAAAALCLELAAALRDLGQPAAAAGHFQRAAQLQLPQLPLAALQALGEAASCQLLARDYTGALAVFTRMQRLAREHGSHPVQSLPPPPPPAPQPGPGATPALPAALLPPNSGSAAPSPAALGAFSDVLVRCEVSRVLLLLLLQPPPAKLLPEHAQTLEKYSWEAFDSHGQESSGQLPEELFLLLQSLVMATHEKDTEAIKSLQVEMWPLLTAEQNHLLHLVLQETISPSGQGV", "assay": "Thermal shift assay (DSF), HTTQ23-HAP40", "type": "binding", "conditions": "SYPRO Orange, 0.25 mg/mL protein, macrocycle up to 10 μM, 2.5% DMSO, n=3", "experimental": "(§1) In an Axygen® 384-well PCR microplate (REF# PCR-384-LC480-W-NF, Corning), samples were mixed to yield a final concentration of 0.25 mg/mL Q54 or Q23/HAP40, a 5-pt 2-fold serial dilution of each macrocycle (top concentration of 10 μM, 2.5% DMSO), and 5X SYPRO™ Orange (CAT# S6650, Thermo Fisher Scientific) in buffer (20 mM HEPES pH 7.4, 150 mM NaCl, 1 mM TCEP, 0.005% Tween-20). Differential Scanning Fluorimetry (DSF) was performed using a LightCycler® 480 (Roche LifeSciences) set to a 4 °C/min temperature ramp (20–95 °C) and fluorescence detection at 580 nm. Melting temperatures (Tm) were obtained from the minima of the negative derivative of each curve. The propagated error of the thermal shift (ΔTm) was calculated from the standard deviation of each Tm mean (n=3). To ensure a maximally macrocycle-bound fraction (KD ~10 nM; ~100% bound) at 0.25 mg/mL HTT or HTT-HAP40 (~0.7 μM), the upper limit of macrocycle tested was 10 μM.\n(§2) 98 Supplementary Figure. 10. Thermal shift (ΔTm) induced by macrocycle binding. Melting\n(§3) 99 temperature of HTTQ54 (left) with HL5 or HL2 minus HTTQ54 with DMSO (46.5 °C), and (right)\n(§4) 100 HTTQ23-HAP40 with HD4, HL2, HL5, HHD2, HHD3, or HHL1 minus HTTQ23-HAP40 with DMSO\n(§5) 101 (51.0 °C). ΔTm significance was determined using an unpaired t-test with Welch correction,\n(§6) 102 comparing to the mean Tm of Q54 or Q23-HAP40 with DMSO; *P < 0.05, **P < 0.01, ***P <\n103 0.001. The summary table reports the ΔTm and exact P value at the highest concentration tested\n(1 picture or pasted object on this page, not shown here)"}, "HTTQ54": {"target": "T2, HTTQ54 (Homo sapiens, UniProt P42858, INS38QQQQQQQQQQQQQQQQQQQQQQQQQQQQQQQQQ)", "T2 construct": "FLAG; made in house; host or cells: Sf9 insect cells (baculovirus)", "assay": "Thermal shift assay (DSF), HTTQ54", "type": "binding", "conditions": "SYPRO Orange, 0.25 mg/mL protein, macrocycle up to 10 μM, 2.5% DMSO, n=3", "experimental": "as §1, §2, §3, §4, §5, §6\n103 0.001. […]"}},
  "note": "Where a SMILES comes first, the peptide text is derived from it. Bridges are numbered along the chain shown (N, C = ends).",
  "data": [
    {"smiles": "CC(C)C[C@@H]1NC(=O)[C@H](Cc2ccc(O)cc2)NC(=O)[C@H](CCCNC(=N)N)NC(=O)[C@H](C)NC(=O)[C@H]([C@@H](C)O)NC(=O)[C@H](Cc2ccc(O)cc2)NC(=O)CSC[C@@H](C(N)=O)NC(=O)[C@H](CCCCN)NC(=O)[C@H](Cc2ccc(O)cc2)NC(=O)[C@H](Cc2c[nH]cn2)NC(=O)[C@H](CC(C)C)NC(=O)[C@H]([C@@H](C)O)NC(=O)CNC(=O)[C@H](CC(C)C)NC(=O)[C@H]([C@@H](C)O)NC1=O", "note": "[HL2] ({CH2CO}-YTARYLTLGTLHYKC-NH2; thioether N-15; C-terminus assumed)", "values": [
      {"measurement": "Enrichment of HTT in HL2 pulldown from NPC lines by LC-MS/MS", "setting": "HTT", "result": "most abundantly enriched protein across all lines"},
      {"measurement": "Thermal shift (ΔTm) of HTTQ23-HAP40 induced by macrocycle", "setting": "HTTQ23-HAP40", "result": "No significant thermal effects"},
      {"measurement": "Thermal shift (ΔTm) of HTTQ54 induced by macrocycle", "setting": "HTTQ54", "result": "No significant thermal effects"}
    ]}
  ]
}
